For data set [1], the system named is peritoneal macrophages. In words: Generation of intracellular cAMP in peritoneal macrophages (radioimmunoassay). It counts as cell-based, rat. To be noted: for cAMP accumulation in peritoneal macrophages: all time points examined. As for the experimental part:
(§1) Rat alveolar and peritoneal macrophages were obtained from 12 week old Fisher 344 rats (Charles River, Kingston, N.Y.). Alveolar macrophages were collected by tracheobronchial lavage as previously described (Vignery et al., J. Histochem Cytochem. , 1989). Peritoneal macrophages were collected from the same rats prior to the lung lavage. The collected cells were: (i) washed twice in Minimum Essential Medium with Earle's salts (MEME) supplemented with 2 mM L-glutamine and vitamins; (ii) plated in 6 well dishes at 10^7 cells/ml, 10^6 cells per well, in MEME containing 10% heat inactivated human serum (HS); (iii) incubated for 20 minutes at 37° C. in 5% CO2, 95% air to let the macrophages adhere; (iv) subsequently grown at 10^6 cells/ml of MEME containing 5% heat inactivated HS. Cells were cultured in FCS for the IL-6 bioassay. All tissue culture reagents were purchased from Gibco Laboratories, Grand Island, N.Y. The adherent cell populations were composed of 99% macrophages and a few occasional polymorphonuclear cells as determined by Wright stain.
(§2) For cAMP studies, cells were grown under the conditions described above but using either 24 or 96 well dishes. Each well contained either 2×10^5 or 5×10^4 cells grown in 800 or 200 μl, respectively. The cells were first washed with warm MEME and subsequently incubated at 37° C. in MEME supplemented with BSA (1 mg/ml) (Sigma Chemical, St. Louis, Mo.) either in the absence or presence of Salmon Calcitonin (sCT) (kindly provided by Dr. Orlowski, Rorer Central Research, Horsham, Pa.), rat calcitonin gene-related peptide (CGRP) (Bachem, Inc., Torrance, Calif.) and 3-isobutyl-1-methylxanthine (IBMX)(Sigma) for the indicated times. Incubations were terminated by aspirating the medium and adding 100 μl of 0.4% perchloric acid to each well. Perchloric acid extracts were neutralized with 1.5M KOH and stored at -20° C. These samples were acetylated and cAMP measured by radioimmunoassay using succinylated ^125 I-labeled cARP (Biomedical Technologies, Inc., Stoughton, Ma.). Results were expressed as fentomoles of CAMP per well. Experiments were performed in duplicates or triplicates and repeated at least 3 times.

The test system of data set [2] is giant cells (fused alveolar macrophages). In words: Generation of intracellular cAMP in giant cells (fused alveolar macrophages), radioimmunoassay. It counts as cell-based, rat. The protocol:
as §1, §2
When peritoneal macrophages from the same animals are grown in these conditions, they remain mononucleated and can therefore be used as a nonfusing control population. It was previously confirmed that giant cells differentiate in vitro by actual cell-cell fusion since DNA synthesis cannot be detected and that the total amount of DNA remains constant during culture in both alveolar and peritoneal macrophages. Therefore, the actual number of alveolar macrophages is decreased drastically by day 4 when each giant cell contains hundreds of nuclei. The important point is that the total number of nuclei remains constant so that we refer to giant cells and peritoneal macrophages as such or else as number of plated cells.

For data set [3], the system named is peritoneal macrophages. In words: IL-1 release by peritoneal macrophages (IL-1 bioassay of supernatants). The data set is classed as cell-based, rat. Conditions: for IL-1 activity detected in peritoneal macrophage supernatants: added to release medium on day 3, 24 hour release. The protocol:
as §1
(§3) To estimate the release of IL-1 and IL-6 by peritoneal macrophages and fused alveolar macrophages, the cells were collected and cultured as described above. Prior to perform the release, the cells were washed twice with warm MEME and subsequently incubated for 24 hours in 1 ml of MEME supplemented with 5% of HS or FCS, with or without agonist. At the termination of the release, the supernatant were collected, spun at 400 g for 10 minutes, transferred to microfuge tubes and stored at -20° C. until assayed. Macrophages remained adherent and viable in all experiments as determined by DNA measurements and trypan blue exclusion.
(§4) IL-1 activity in the macrophage supernatants was measured according to Gillis and Mizel (Proc. Natl. Acad. Sci., USA, 1981, 78:1133-1137). LBRM-33 cells, clones 1A5 and 5A4 (ATCC, Rockville, Md.) were stimulated with either PHA (Gibco), rm IL-1β or log2 dilutions of the macrophage supernatants. LBRM-33 lymphocyte supernatants were harvested from 24 hour cultures and subsequently tested for IL-2 activity using a standard microassay, Gillis et al. (J. Immunol., 1978, 120:2027-2032), based on the IL-2 dependent exponential proliferation of a murine cytotoxic T-cell line CTLL (ATCC, Rockville, Md.), Gillis and Smith (Nature (London), 1977, 268:154-156). CTLL cells were cultured in the presence of a log2 dilution series of putative IL-2 containing samples. After 24 hours, the cells were exposed to 0.5 μCi[^3 H]dThd (20 mCi/mmol, New England Nuclear) for an additional 4 hours after which the cultures were harvested onto glass fiber filter strips with the aid of a multiple automated sample harvester (MASH 11, Microbiological Associates, Bethesda, Md.) [^3 H]dThd incorporation was determined by direct counting.

Data set [4] concerns giant cells (fused alveolar macrophages). In words: IL-1 release by giant cells (fused alveolar macrophages), IL-1 bioassay of supernatants. To be noted: added to release medium on day 3, 24 hour release. The data set is classed as cell-based, rat. As for the experimental part:
as §1, §3
IL-1 activity in the macrophage supernatants was measured according to Gillis and Mizel (Proc. Natl. Acad. Sci., USA, 1981, 78:1133-1137). LBRM-33 cells, clones 1A5 and 5A4 (ATCC, Rockville, Md.) were stimulated with either PHA (Gibco), rm IL-1β or log2 dilutions of the macrophage supernatants. […] After 24 hours, the cells were exposed to 0.5 μCi[^3 H]dThd (20 mCi/mmol, New England Nuclear) for an additional 4 hours after which the cultures were harvested onto glass fiber filter strips with the aid of a multiple automated sample harvester (MASH 11, Microbiological Associates, Bethesda, Md.) [^3 H]dThd incorporation was determined by direct counting.
When peritoneal macrophages from the same animals are grown in these conditions, they remain mononucleated and can therefore be used as a nonfusing control population. It was previously confirmed that giant cells differentiate in vitro by actual cell-cell fusion since DNA synthesis cannot be detected and that the total amount of DNA remains constant during culture in both alveolar and peritoneal macrophages. […]

The subject of data set [5] is peritoneal macrophages and giant cells. In words: IL-6 release by peritoneal and fused alveolar macrophages (IL-6 bioassay, B13.29 subclone B9). The data set is classed as cell-based, rat. As for the experimental part:
as §1, §3
Five thousand,B13.29 cells subclone B9 (donated by Dr. Thomas Kupper, Washington University of School of Medicine, Washington, Mo.) were cultured in the presence of a log2 dilution series of macrophage supernatants or standard dilutions of rmIL-6 according to Aarden, L. A. ( Eur. J. Immunol., 1987, 17:1411-1416). […]

Data set [6] relates to LBRM-33 cells. In words: IL-1 bioassay with CGRP added to IL-1 containing medium (LBRM-33 cells, CTLL readout). The data set is classed as cell-based, murine. As for the experimental part:
as §4

The test system of data set [7] is CTLL cells. In words: IL-2 dependent proliferation of CTLL cells treated directly. The data set is classed as cell-based, murine. To be noted: in the presence of IL-2. The protocol: as §4
Data set [8] has as its system chronic rheumatoid arthritis. In words: Treatment of chronic rheumatoid arthritis in a human being. It counts as in vivo. To be noted: I.M. administration of 0.5 mg every 24 hours until relief.
The subject of data set [9] is macrophages. To be noted: cited from earlier work.

Read-outs that look alike come from different tables or passages of the source.

As for `CC(C)Cn1c(=O)n(C)c(=O)c2[nH]cnc21` [IBMX, 3-isobutyl-1-methylxanthine], in [1], the “cAMP accumulation in peritoneal macrophages” value was “not able at any time point measured to induce a cAMP accumulation”. The “cAMP accumulation in giant cells” value in [2] (fused alveolar macrophages, any time point measured) was “not able at any time point measured to induce a cAMP accumulation”.

In the case of “Rat Calcitonin Gene-Related Peptide [CGRP]”, the “IL-1 bioactivity in supernatants of vitamin D3 stimulated peritoneal macrophages” value in data set [3] (1,25(OH)2-vitamin D3 stimulated peritoneal macrophages) was “reduce significantly”. Also, in data set [3], the “IL-1 activity detected in peritoneal macrophage supernatants” value is on record as “prevented the release of IL-1 by both cell types”. The “IL-1 activity detected in giant cell supernatants” value in data set [4] is listed as “prevented the release of IL-1 by both cell types”. In addition, the “IL-6 activity level in macrophage supernatants” value (“IL-6 activity level” for short) in [5] is listed as “neither sCT nor CGRP treatment of the cells modified this level”. Moreover, the “half maximal concentration of cAMP” value in data set [1] (peritoneal macrophages, 2 minutes incubation in the presence of IBMX) is 80 fmoles per 5×10^4 plated cells; in [2] (fused alveolar macrophages, 2 minutes incubation in the presence of IBMX) it was 300 fmoles per 5×10^4 plated cells. The EC50 came to 2 nM in [1] (peritoneal macrophages, 2 minutes incubation in the presence of IBMX, read-out: concentration giving half maximal concentration of cAMP) and 2 nM in data set [2] (fused alveolar macrophages, 2 minutes incubation in the presence of IBMX, read-out: concentration giving half maximal concentration of cAMP). Also, in data set [2] (macrophages, comparison CGRP vs CT), the “cAMP accumulation compared with CT” value was “larger accumulation of cAMP in macrophages than CT”. Besides, the “proliferative response of CTLL cytotoxic T cells in the IL-1 bioassay” value in [6] is given as “prevents the proliferative response”. Besides, the “proliferation of CTLL cells” value in [7] is listed as “did not prevent significantly their proliferation”. Besides, the “symptoms of the disease, e.g. pain and swelling of the affected joints” value in data set [8] was “amelioration of the symptoms of the disease”. In data set [9], the “ability of macrophages to act as APC” value was “profoundly inhibit”. Besides, in data set [9], the “ability of macrophages to produce H2O2 in response to IFN” value is on record as “profoundly inhibit”.

Take `CC(C)C[C@H](NC(=O)[C@H](CCCCN)NC(=O)CNC(=O)[C@H](CC(C)C)NC(=O)[C@@H](NC(=O)[C@@H]1CSSC[C@H](N)C(=O)N[C@@H](CO)C(=O)N[C@@H](CC(N)=O)C(=O)N[C@@H](CC(C)C)C(=O)N[C@@H](CO)C(=O)N[C@@H]([C@@H](C)O)C(=O)N1)C(C)C)C(=O)N[C@@H](CO)C(=O)N[C@@H](CCC(N)=O)C(=O)N[C@@H](CCC(=O)O)C(=O)N[C@@H](CC(C)C)C(=O)N[C@@H](Cc1c[nH]cn1)C(=O)N[C@@H](CCCCN)C(=O)N[C@@H](CC(C)C)C(=O)N[C@@H](CCC(N)=O)C(=O)N[C@H](C(=O)N[C@@H](Cc1ccc(O)cc1)C(=O)N1CCC[C@H]1C(=O)N[C@@H](CCCNC(=N)N)C(=O)N[C@H](C(=O)N[C@@H](CC(N)=O)C(=O)N[C@H](C(=O)NCC(=O)N[C@@H](CO)C(=O)NCC(=O)N[C@H](C(=O)N1CCC[C@H]1C(N)=O)[C@@H](C)O)[C@@H](C)O)[C@@H](C)O)[C@@H](C)O` [sCT, Salmon Calcitonin]: the “IL-1 activity detected in giant cell supernatants” value in data set [4] is given as “reduced significantly”. Moreover, the “IL-6 activity level” value in data set [5] is reported as “neither sCT nor CGRP treatment of the cells modified this level”. The “cAMP accumulation in peritoneal macrophages” value in [1] is on record as “failed to induce a response”. Moreover, the “time of peak of cAMP accumulation after addition of the peptide” value in [2] (fused alveolar macrophages, absence of IBMX) worked out at 5 min. The “lag time to cAMP accumulation” value in data set [2] (fused alveolar macrophages, with 10 μM IBMX) came to 2 min. In addition, the “time at which cAMP returned to basal level” value turned out to be 15 min in data set [2] (giant cells, absence of IBMX) and 30 min in [2] (giant cells, presence of IBMX). Moreover, the “half maximal cAMP accumulation” value in data set [2] (giant cells, sCT dose response) was 50 fmoles per 6.4×10^4 plated cells. Also, the EC50 in data set [2] (giant cells, sCT dose response, read-out: concentration for half maximal stimulation of cAMP accumulation) worked out at 2 nM.

With calcitonin [CT], the macrophage activation entry in [9] was “prevented macrophage activation”.

Regarding `C=C[C@@]1(C)CC(=O)[C@]2(O)[C@@]3(C)[C@@H](O)CCC(C)(C)[C@@H]3[C@H](O)[C@H](OC(C)=O)[C@@]2(C)O1` [forskolin], the “IL-1 activity detected in peritoneal macrophage supernatants” value in [3] is “as effective as CGRP in blocking the secretion of IL-1”. Moreover, in [4], the “IL-1 activity detected in giant cell supernatants” value was “as effective as CGRP in blocking the secretion of IL-1”.

As for `C=C1/C(=C\C=C2/CCC[C@]3(C)[C@@H]([C@H](C)CCCC(C)(C)O)CC[C@@H]23)C[C@@H](O)C[C@@H]1O` [1,25(OH)2 -vitamin D3], the “IL-1 activity detected in peritoneal macrophage supernatants” value in data set [3] was “stimulated the proliferation of CTLL cells, and probably IL-1 release”. The “IL-1 activity detected in giant cell supernatants” value in data set [4] was “fail to respond”. In addition, the “IL-6 activity level” value in data set [5] is given as “neither CGRP nor 1,25(OH)2 -vitamin D3 appear to significantly alter this process”.

(Values after patent US5858978A, “Pharmaceutical compositions containing calcitonin gene-related peptide (CGRP) and use thereof to ameliorate hyperimmune mediated diseases and abnormal conditions” (Yale University, priority 1997, dated 1999).)
